We go through 11 compounds from ChEMBL document CHEMBL3217673, “Synthesis of cyanine dyes and investigation of their in vitro antiprotozoal activities” (Medchemcomm, 2012).

Data set [1] in a line: Selectivity index, ratio of IC50 for rat L6 cells to IC50 for Trypanosoma cruzi Tulahuen C2C4. Format: toxicity, cell-based. Particulars: read-out: Ratio IC50.
Data set [2] in a line: Selectivity index, ratio of IC50 for rat L6 cells to IC50 for Leishmania donovani MHOMET-67/L82. Format: toxicity, cell-based. As to conditions: read-out: Ratio IC50.
Data set [3] in a line: Selectivity index, ratio of IC50 for rat L6 cells to IC50 for Trypanosoma brucei rhodesiense STIB900. The data set is classed as toxicity, cell-based. As to conditions: read-out: Ratio IC50.
The test system of data set [4] is L6. Kind of data set: Cytotoxicity against rat L6 cells. The data set is classed as cell-based.
Data set [5] is described as follows: Selectivity index, ratio of IC50 for rat L6 cells to IC50 for chloroquine and pyrimethamine-resistant Plasmodium falciparum K1. As to conditions: read-out: Ratio IC50. The data set is classed as toxicity, cell-based.
Data set [6] deals with Trypanosoma brucei rhodesiense. In words: Antiprotozoal activity against Trypanosoma brucei rhodesiense STIB900. Format: functional, organism-based.
Data set [7] deals with Trypanosoma cruzi. In words: Antiprotozoal activity against Trypanosoma cruzi Tulahuen C2C4. The data set is classed as functional, organism-based.
Data set [8] has as its system Leishmania donovani. Kind of data set: Antiprotozoal activity against Leishmania donovani MHOMET-67/L82. Format: functional, organism-based.
The subject of data set [9] is Plasmodium falciparum. Kind of data set: Antiprotozoal activity against chloroquine and pyrimethamine-resistant Plasmodium falciparum K1. The data set is classed as functional, organism-based.

For `CCN1/C(=C/C=C/c2oc3ccc(Cl)cc3[n+]2C)Sc2ccc(F)cc21`, the selectivity ratio in [1] came to 3.6; in data set [2], 29.1; in data set [3], 3.6; in data set [5] it was 218. Further, the IC50 stood at 3100 nM in [4]; 850 nM in data set [6]; 853 nM in [7]; 106 nM in data set [8]; 14 nM in data set [9].

For `CN1/C(=C/C=C/c2oc3ccccc3[n+]2C)Sc2ccc(Cl)cc21`, the selectivity ratio stood at 6.4 in data set [1], 19 in data set [2], 8.6 in data set [3] and 178 in data set [5]. The half-inhibitory concentration (IC50) in data set [4] came out at 2280 nM; in data set [6] it was 266 nM; in [7], 355 nM; in [8], 120 nM; in [9], 13 nM.

Regarding `CN1/C(=C/C=C/c2sc3ccccc3[n+]2C)Sc2ccc(Cl)cc21`, the selectivity ratio in data set [1] was 45; in data set [2], 5.2; in data set [3] it was 5.2; in [5], 45. The IC50 in [4] is 331 nM; in data set [6], 64 nM; in data set [7] it was 7 nM; in [8], 64 nM; in [9], 7 nM.

`CN1/C(=C/C=C/c2oc3ccc(Cl)cc3[n+]2C)Oc2ccc(Cl)cc21`: the selectivity ratio in data set [1] worked out at 0.8; in [2] it was 6.7; in data set [3], 6.9; in [5] it was 6. Besides, the IC50 in data set [4] came out at 35900 nM; in data set [6], 5200 nM; in data set [7], 47800 nM; in data set [8], 5320 nM; in [9], 6030 nM.

As to `CCN1/C(=C/C=C/c2oc3ccccc3[n+]2C)Sc2ccc(F)cc21`, the selectivity ratio turned out to be 5.7 in data set [1], 27.9 in data set [2], 1.8 in [3] and 586 in data set [5]. In addition, the IC50 in data set [4] worked out at 1510 nM; in data set [6], 841 nM; in [7] it was 262 nM; in [8] it was 54 nM; in data set [9], 3 nM.

On to `Cc1ccc2oc(/C=C/C=C3\Oc4ccc(Cl)cc4N3C)[n+](C)c2c1`, for which the selectivity ratio in [1] was 5.5; in data set [2], 68.6; in data set [3] it was 55.7; in [5], 16.2. In addition, the IC50 in [4] is 7580 nM; in [6], 136 nM; in [7], 1370 nM; in data set [8] it was 110 nM; in [9] it was 468 nM.

Turning to `Cc1ccc2c(c1)N(C)/C(=C/C=C/c1oc3ccccc3[n+]1C)O2`, the selectivity ratio in data set [1] stood at 57.7; in data set [2], 50.5; in [3] it was 23.8; in data set [5], 12.6. The IC50 was determined as 1140 nM in data set [4]; 48 nM in data set [6]; 19 nM in data set [7]; 22 nM in data set [8]; 90 nM in [9].

Consider `CN1/C(=C/C=C/c2oc3ccc(Cl)cc3[n+]2C)Sc2ccc(Cl)cc21`, for which the selectivity ratio in data set [1] was 1; in data set [2], 35.3; in data set [3], 23.1; in [5], 141. In addition, the IC50 was determined as 2980 nM in data set [4]; 129 nM in data set [6]; 2860 nM in data set [7]; 85 nM in data set [8]; 21 nM in [9].

Regarding `Cn1/c(=N\N/C=C/c2sc3ccc(F)cc3[n+]2C)sc2ccccc21`, the selectivity ratio in data set [1] stood at 1.3; in data set [2] it was 1.5; in [3], 3.5; in [5] it was 2.5. Also, the half-inhibitory concentration (IC50) turned out to be 15500 nM in data set [4]; 4450 nM in data set [6]; 11800 nM in data set [7]; 10200 nM in [8]; 6140 nM in data set [9].

For the compound `CN1/C(=C/C=C/c2oc3ccccc3[n+]2C)Oc2ccccc21`, the selectivity ratio in [1] came to 35.6; in data set [2] it was 17.8; in data set [3], 5.3; in [5], 98.5. The IC50 in data set [4] came out at 3760 nM; in data set [6] it was 707 nM; in [7], 106 nM; in data set [8], 211 nM; in data set [9] it was 38 nM.

Take `CN1/C(=C/C=C/c2sc3ccc(F)cc3[n+]2C)Sc2ccc(F)cc21`: the selectivity ratio was 0.2 in data set [1], 35.8 in [2], 2.7 in data set [3] and 477 in [5]. Moreover, the IC50 in data set [4] amounted to 699 nM; in [6] it was 262 nM; in data set [7] it was 2910 nM; in data set [8], 20 nM; in data set [9], 2 nM.

The IC50 is the concentration that gives 50% inhibition. A low value points to higher potency.
